Source: ChEMBL document CHEMBL1158178, “Study on the binding interaction between carnitine optical isomer and bovine serum albumin” (Eur J Med Chem, 2008)

What was measured:
[1] = biological target: T1, Albumin (Bos taurus, UniProt P02769); experiment: Binding affinity to bovine serum albumin by fluorescence spectroscopy; assay type: ADME; conditions: cattle, isolated protein
[2] = biological target: T1, Albumin; experiment: Binding affinity to bovine serum albumin by fluorescence spectroscopy in presence of Fe3+; assay type: ADME; conditions: cattle, isolated protein

T1 sequence (P02769 whole entry): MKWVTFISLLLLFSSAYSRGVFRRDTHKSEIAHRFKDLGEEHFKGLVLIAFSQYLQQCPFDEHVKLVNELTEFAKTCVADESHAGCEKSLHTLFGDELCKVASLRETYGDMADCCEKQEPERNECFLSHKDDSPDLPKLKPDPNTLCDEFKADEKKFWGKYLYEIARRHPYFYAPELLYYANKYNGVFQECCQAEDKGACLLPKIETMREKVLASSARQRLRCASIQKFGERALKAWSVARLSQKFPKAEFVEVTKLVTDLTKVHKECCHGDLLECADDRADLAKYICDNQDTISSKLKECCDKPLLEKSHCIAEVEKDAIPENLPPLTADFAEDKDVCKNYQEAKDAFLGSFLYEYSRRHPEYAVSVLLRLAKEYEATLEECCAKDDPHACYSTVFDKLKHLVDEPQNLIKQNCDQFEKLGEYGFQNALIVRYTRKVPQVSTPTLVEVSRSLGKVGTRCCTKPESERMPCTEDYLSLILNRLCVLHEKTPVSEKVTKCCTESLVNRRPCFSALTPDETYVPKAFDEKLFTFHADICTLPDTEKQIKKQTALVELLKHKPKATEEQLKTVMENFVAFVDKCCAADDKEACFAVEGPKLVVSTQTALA

Structure (SMILES)	K [1]	K [2]
C[N+](C)(C)C[C@@H](O)CC(=O)[O-] [D-CARNITINE]	2.15 ×10⁴ L/mol	3.18 ×10⁴ L/mol
C[N+](C)(C)C[C@H](O)CC(=O)[O-] [LEVOCARNITINE]	2.27 ×10⁴ L/mol	2.97 ×10⁴ L/mol
